Legend:
Format in all cases: biochemical
[1] = target: T1, JAK3 (Homo sapiens, UniProt P52333); assay: Omnia assay for potency against JAK3; details: read-out: JAK3 Inhibition
T1 sequence (P52333 1-1124): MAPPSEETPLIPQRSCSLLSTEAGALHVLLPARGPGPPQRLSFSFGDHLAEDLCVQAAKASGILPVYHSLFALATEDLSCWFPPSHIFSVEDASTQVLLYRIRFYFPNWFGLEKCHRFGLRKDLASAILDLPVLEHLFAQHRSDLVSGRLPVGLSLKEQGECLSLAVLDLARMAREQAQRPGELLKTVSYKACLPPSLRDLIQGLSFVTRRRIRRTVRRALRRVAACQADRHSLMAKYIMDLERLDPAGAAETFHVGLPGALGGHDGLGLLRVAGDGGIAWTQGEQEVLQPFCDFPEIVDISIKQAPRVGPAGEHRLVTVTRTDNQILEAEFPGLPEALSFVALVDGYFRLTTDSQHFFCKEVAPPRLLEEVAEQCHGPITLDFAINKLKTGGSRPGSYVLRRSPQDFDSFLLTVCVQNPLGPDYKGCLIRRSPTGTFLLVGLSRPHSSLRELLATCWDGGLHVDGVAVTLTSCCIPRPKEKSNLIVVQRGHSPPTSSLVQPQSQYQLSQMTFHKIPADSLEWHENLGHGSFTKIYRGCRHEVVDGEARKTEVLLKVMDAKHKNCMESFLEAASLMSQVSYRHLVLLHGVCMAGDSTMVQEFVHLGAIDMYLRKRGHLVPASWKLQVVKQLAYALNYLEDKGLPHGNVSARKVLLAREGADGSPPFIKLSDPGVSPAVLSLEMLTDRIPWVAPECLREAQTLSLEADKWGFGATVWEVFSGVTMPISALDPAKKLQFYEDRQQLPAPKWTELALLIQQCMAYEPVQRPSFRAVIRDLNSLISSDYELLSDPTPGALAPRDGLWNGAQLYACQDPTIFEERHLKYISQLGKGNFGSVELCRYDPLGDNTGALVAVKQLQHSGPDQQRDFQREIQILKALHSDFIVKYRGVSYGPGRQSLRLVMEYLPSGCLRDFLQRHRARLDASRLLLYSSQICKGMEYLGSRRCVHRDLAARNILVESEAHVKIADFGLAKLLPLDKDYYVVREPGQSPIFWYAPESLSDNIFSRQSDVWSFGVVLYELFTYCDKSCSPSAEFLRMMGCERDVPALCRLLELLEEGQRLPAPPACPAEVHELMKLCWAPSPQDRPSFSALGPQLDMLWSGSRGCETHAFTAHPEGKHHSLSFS
Method in brief: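 Continuous-read Omnia kinase assay with 5 nM JAK3, 5 μM ATP (near apparent Km) and 5 μM Y12-Sox peptide in Tris pH 7.5/MgCl2 buffer; enzyme pre-incubated with compound 30 min at 27 °C. Fluorescence (ex360/em485) read over 60 min; initial velocities fitted against inhibitor concentration to give IC50.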

[2] = target: T2, EGFR (WT) (Homo sapiens, UniProt P00533); assay: Omnia continuous-read kinase assay, EGFR (WT); details: read-out: EGFR inhibtion
T2 construct: purchased Invitrogen PV3872
Method in brief: (§1)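 Enzyme pre-incubated 30 min at 27 °C with compound, then ATP/Y12-Sox peptide added; fluorescence (ex360/em485) read continuously 60 min in 20 mM Tris pH 7.5, 5 mM MgCl2, 0.2 mM DTT. WT: 5 nM enzyme, […]; T790M/L858R: 3 nM enzyme, […]. IC50 from initial velocities, variable-slope fit.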

[3] = target: T3, EGFR (T790M/L858R) (Homo sapiens, UniProt P00533, L858R/T790M); assay: Omnia continuous-read kinase assay, EGFR (T790M/L858R); details: read-out: EGFR (T790M/L858R) inhibiton
T3 construct: purchased BPS Bioscience 40350
Method in brief: as §1

T2 sequence (P00533 25-1210): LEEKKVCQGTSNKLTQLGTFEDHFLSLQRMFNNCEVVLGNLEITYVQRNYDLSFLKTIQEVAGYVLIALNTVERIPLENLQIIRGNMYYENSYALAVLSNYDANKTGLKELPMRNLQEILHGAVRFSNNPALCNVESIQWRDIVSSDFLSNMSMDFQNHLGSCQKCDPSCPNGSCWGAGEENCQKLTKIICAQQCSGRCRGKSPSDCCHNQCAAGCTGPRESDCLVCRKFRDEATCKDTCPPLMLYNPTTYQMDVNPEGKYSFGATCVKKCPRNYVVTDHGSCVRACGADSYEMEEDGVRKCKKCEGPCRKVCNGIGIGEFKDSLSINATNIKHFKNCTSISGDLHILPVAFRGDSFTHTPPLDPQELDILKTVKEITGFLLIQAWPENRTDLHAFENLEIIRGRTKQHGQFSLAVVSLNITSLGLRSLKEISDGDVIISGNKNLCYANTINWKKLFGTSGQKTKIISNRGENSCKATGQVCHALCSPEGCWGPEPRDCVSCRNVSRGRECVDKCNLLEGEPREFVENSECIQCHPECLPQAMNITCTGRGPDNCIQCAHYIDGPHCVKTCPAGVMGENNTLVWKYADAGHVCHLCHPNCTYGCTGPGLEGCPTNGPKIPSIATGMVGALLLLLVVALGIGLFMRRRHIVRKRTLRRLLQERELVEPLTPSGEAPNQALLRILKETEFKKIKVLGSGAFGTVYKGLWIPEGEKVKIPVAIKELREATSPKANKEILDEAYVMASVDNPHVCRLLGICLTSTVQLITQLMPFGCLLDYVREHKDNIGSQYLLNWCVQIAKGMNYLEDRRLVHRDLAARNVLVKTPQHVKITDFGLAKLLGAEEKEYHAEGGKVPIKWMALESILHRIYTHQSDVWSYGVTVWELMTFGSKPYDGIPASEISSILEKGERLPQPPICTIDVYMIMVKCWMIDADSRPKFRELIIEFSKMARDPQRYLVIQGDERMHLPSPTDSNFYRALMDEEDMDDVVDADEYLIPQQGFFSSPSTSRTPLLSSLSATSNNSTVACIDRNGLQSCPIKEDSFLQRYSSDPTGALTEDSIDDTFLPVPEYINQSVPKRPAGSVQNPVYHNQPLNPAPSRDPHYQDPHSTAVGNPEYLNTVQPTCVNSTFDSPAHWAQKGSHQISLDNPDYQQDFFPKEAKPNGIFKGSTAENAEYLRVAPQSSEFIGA
T3 sequence (P00533 25-1210 T790M/L858R): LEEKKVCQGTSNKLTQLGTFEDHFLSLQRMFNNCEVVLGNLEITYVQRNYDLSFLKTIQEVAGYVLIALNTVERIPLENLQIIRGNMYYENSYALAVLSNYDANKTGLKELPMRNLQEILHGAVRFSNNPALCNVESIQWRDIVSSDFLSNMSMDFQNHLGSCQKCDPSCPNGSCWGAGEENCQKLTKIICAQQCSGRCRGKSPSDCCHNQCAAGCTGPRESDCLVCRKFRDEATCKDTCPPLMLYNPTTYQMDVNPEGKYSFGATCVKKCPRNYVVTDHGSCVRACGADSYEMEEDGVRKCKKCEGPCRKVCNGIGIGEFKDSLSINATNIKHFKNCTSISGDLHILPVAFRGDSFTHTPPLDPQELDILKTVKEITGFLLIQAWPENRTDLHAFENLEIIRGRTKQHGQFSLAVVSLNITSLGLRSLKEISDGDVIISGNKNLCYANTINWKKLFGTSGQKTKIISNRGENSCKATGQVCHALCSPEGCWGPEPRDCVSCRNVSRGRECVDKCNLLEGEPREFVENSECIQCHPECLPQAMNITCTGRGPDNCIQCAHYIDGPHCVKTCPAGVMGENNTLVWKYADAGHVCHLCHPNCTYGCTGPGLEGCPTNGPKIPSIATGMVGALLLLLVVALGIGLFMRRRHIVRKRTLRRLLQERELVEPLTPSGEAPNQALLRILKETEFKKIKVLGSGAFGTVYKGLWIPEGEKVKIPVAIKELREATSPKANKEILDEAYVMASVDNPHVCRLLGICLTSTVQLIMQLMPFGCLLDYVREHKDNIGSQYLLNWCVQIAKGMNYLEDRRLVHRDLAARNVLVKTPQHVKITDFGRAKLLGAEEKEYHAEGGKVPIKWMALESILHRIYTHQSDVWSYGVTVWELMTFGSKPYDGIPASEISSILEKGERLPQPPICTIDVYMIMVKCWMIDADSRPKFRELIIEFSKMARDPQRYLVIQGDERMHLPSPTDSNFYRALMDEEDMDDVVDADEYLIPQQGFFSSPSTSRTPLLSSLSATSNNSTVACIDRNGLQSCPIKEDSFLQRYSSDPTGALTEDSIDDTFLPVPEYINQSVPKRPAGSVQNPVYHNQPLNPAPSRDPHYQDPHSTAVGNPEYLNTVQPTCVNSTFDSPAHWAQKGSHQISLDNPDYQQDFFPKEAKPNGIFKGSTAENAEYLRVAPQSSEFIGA

Row | Compound | IC50 [1] [nM] | IC50 [2] [nM] | IC50 [3] [nM]
1 | C=CC(=O)Nc1cccc(Nc2cc(Nc3ccc(Oc4ccccc4)cc3)ncn2)n1 [I-63] | 10 to 100 | ≤ 10 | ≤ 10
2 | C=CC(=O)Nc1cccc(Nc2cc(Nc3ccc(Oc4ccccc4)cc3)ncn2)c1 [I-13, N-{3-[6-(4-phenoxyphenylamino)-pyrimidin-4-ylamino]phenyl}-2 propenamide] | 100 to 1000 | ≤ 10 | 10 to 100
3 | C=CC(=O)Nc1cccc(Nc2cc(Nc3cccc(Br)c3)ncn2)c1 [I-1, N-{3-[6-(3-bromophenylamino)-pyrimidin-4-ylamino]-phenyl}-2-propenamide] | ≤ 10 | ≤ 10 | ≤ 10
4 | CN(C)C/C=C/C(=O)Nc1cccc(Nc2cc(Nc3ccc(Oc4ccccc4)cc3)ncn2)n1 [I-64, (E)-4-(dimethylamino)-N-(6-(6-(4-phenoxyphenylamino)pyrimidin-4-ylamino)pyridine-2-yl)but-2-enamide] | ≤ 10 |  | 
5 | C=CC(=O)Nc1cccc(Nc2cc(Oc3cccc(C)c3)ncn2)n1 [I-65] | ≤ 10 | ≤ 10 | 10 to 100

The next lines start with the values.

Row | IC50 [1] [nM] | IC50 [2] [nM] | IC50 [3] [nM] | Compound
6 | ≤ 10 | ≤ 10 |  | Cc1cccc(Oc2cc(Nc3cccc(NC(=O)/C=C/CN(C)C)n3)ncn2)c1 [I-81]
7 | 100 to 1000 | ≤ 10 | 100 to 1000 | C=CC(=O)Nc1cccc(Nc2cc(Oc3ccc(Oc4ccccc4)cc3)ncn2)n1 [I-66]
8 | ≤ 10 | ≤ 10 |  | C=CC(=O)N(C)c1cccc(Nc2cc(Nc3ccc(Oc4ccccc4)cc3)ncn2)n1 [I-78, N-methyl-N-(6-(6-(4-phenoxyphenylamino)pyrimidin-4-ylamino)pyridin-2-yl)acrylamide]
9 | ≤ 10 | ≤ 10 |  | CN(C)C/C=C/C(=O)N(C)c1cccc(Nc2cc(Nc3ccc(Oc4ccccc4)cc3)ncn2)n1 [I-79, (E)-4-(dimethylamino)-N-methyl-N-(6-(6-(4-phenoxyphenylamino)pyrimidin-4-ylamino)pyridine-2-yl)but-2-enamide]
10 | ≤ 10 | ≤ 10 | ≤ 10 | C=CC(=O)Nc1cccc(Nc2cc(Nc3ccccc3)ncn2)n1 [I-94]

Source: patent US9296704B2, “Substituted pyrimidines as protein kinase inhibitors” (CELGENE AVILOMICS RESEARCH, INC., priority 2007, dated 2016)
